Results as given in patent US20180263996A1, “ARYL SULTAM DERIVATIVES AS RORc MODULATORS” (Genentech, Inc., priority 2015, published 2018).
pIC50: −log10 of the molar value.

Target: T1, RORc (Homo sapiens, UniProt P51449)
T1 construct: host or cells: E. coli
T1 sequence (P51449 269-508 limits assumed): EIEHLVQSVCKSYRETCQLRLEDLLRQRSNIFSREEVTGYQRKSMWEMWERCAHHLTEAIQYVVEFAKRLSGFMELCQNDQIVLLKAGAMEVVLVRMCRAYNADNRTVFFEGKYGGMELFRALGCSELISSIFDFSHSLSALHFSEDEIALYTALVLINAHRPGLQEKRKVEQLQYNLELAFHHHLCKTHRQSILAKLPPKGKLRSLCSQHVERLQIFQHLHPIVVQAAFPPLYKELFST
Test: In Vitro RORc Ligand Binding Assay
Details: IC50 values for RORc
Experimental: This assay was used to determine a compound's potency in inhibiting activity of RORc by determining, Kiapp, IC50, or percent inhibition values.
On day of the assay, 100 uL of 0.05% CHAPS (in deionized H2O) was added to all wells of the GFB Unifilter plate and allowed soak for 1 h. A wash buffer of 50 mM HEPES (pH 7.4), 150 mM NaCl, and 5 mM MgCl2 was prepared to wash the filter plate. To prepare an assay buffer, BSA was added to the wash buffer to reach 0.01% and DTT was added to reach 1 mM.
The 20× compound stocks were diluted in DMSO with Assay Buffer 4-fold to reach 5× the final test concentration in 25% DMSO (10 uL compound+30 uL Assay Buffer). Solutions were mixed by aspiration several times with a pipette set on 50 uL volume.
For two point screening, 10 mM stock compound solutions were diluted in DMSO to obtain 200 uM (20× the high test concentration) and then diluted 10-fold further to reach 20 uM (20× the low test concentration). The 20× stocks were diluted 4-fold with Assay Buffer (10 uL compound+30 uL Assay Buffer) to reach 5× the test concentrations (50 uM and 5 uM) and 10 uL were added to two assay plates for the duplicate wells. With each concentration tested on 2 plates, each set of 80 compounds used 4 assay plates (1 uM and 10 uM, with n=2).
For 25-hydroxycholesterol in 25% DMSO/75% Assay Buffer; 10 uL per well was used for NSB samples. Wells for Total Binding and No Receptor sample determination contained 10 uL of 25% DMSO/75% Assay Buffer per well.
Add 20 uL to all wells to reach 6 nM final concentration in the assay.
Stock receptor solution was diluted in assay buffer to obtain 1.5 ug/mL in Assay Buffer. 20 uL was added to all wells. For No Receptor samples, 20 uL Assay Buffer was substituted for receptor solution.
Assay plates were 96-well polypropylene V-bottom plates. […] 10 uL of 25% DMSO/75% Assay Buffer was added to Total Binding or No Receptor wells. 10 uL of 5 uM 25-hydroxycholesterol in 25% DMSO/75% Assay Buffer was added to NSB wells. […] 20 uL of 1.5 ug/mL RORc receptor was added to wells (or 40 uL Assay Buffer to No R wells). Following addition to the wells, the plates were incubated 3 h at 25° C.
Using a Packard Filtermate Harvester, the filter plate were washed 4 times following transfer of the incubated samples. Plates were dry-filtered completely (2 h at 50° C. or overnight at room temperature). 50 uL Microscint 0 was added to all wells and read on Topcount protocol Inverted.
Final concentrations were as follows: 50 mM HEPES buffer (pH 7.4); 150 mM NaCl; 1 mM DTT; 5 mM MgCl2; 0.01% BSA; 5% DMSO; 0.6 ug/mL RORc receptor; 6 nM 25-[^3H]hydroxycholesterol. For NSB wells, 1 uM 25-hydroxycholesterol was also present.

| Structure (SMILES) | pIC50 |
| --- | --- |
| C[C@H]1CC[C@H](c2ccccc2)S(=O)(=O)N1Cc1cc(F)c(C(C)(C)NCC(N)=O)cc1F [Compound 20, 2-[[1-[2,5-difluoro-4-[[(3S,6R)-3-methyl-1,1-dioxo-6-phenyl-thiazinan-2-yl]methyl]phenyl]-1-methyl-ethyl]amino]acetamide] | 8.38 |
| C[C@H]1CC[C@H](c2ccccc2)S(=O)(=O)N1Cc1ccc(C2(C(=O)NC3(C#N)CC3)CCOCC2)cc1F (stereo in doubt) [Compound 36, N-(1-cyanocyclopropyl)-4-[3-fluoro-4-[[(3S,6R)-3-methyl-1,1-dioxo-6-phenyl-thiazinan-2-yl]methyl]phenyl]tetrahydropyran-4-carboxamide] | 6.63 |
| C[C@H]1CC[C@H](c2ccccc2)S(=O)(=O)N1Cc1ccc(C2(C(=O)NC3(CO)CC3)CCOCC2)cc1F [Compound 35, 4-[3-fluoro-4-[[(3S,6R)-3-methyl-1,1-dioxo-6-phenyl-thiazinan-2-yl]methyl]phenyl]-N-[1-(hydroxymethyl)cyclopropyl] tetrahydropyran-4-carboxamide] | 7.37 |
| C[C@H]1CC[C@H](c2ccccc2)S(=O)(=O)N1Cc1cc(F)c([C@H](OC2COC2)C(N)=O)cc1F [Compound 9, (2S)-2-[2,5-difluoro-4-[[(3S,6R)-3-methyl-1,1-dioxo-6-phenyl-thiazinan-2-yl]methyl]phenyl]-2-(oxetan-3-yloxy)acetamide] | 7.46 |
| CC(NCC(N)=O)c1cc(F)c(CN2[C@@H](C)CC[C@H](c3ccccc3)S2(=O)=O)cc1F (stereo partly drawn) [Compound 29, 2-[1-[2,5-difluoro-4-[[(3S,6R)-3-methyl-1,1-dioxo-6-phenyl-thiazinan-2-yl]methyl]phenyl]ethylamino] acetamide] | 7.25 |
| C[C@H]1CC[C@H](c2ccccc2)S(=O)(=O)N1Cc1cc(F)c(C2(OCC(=O)NC3CC3)CCOCC2)cc1F [Compound 41, N-cyclopropyl-2-[4-[2,5-difluoro-4-[[(3S,6R)-3-methyl-1,1-dioxo-6-phenyl-thiazinan-2-yl]methyl]phenyl]tetrahydropyran-4-yl]oxy-acetamide] | 8.17 |
| C[C@H]1CC[C@H](c2ccccc2)S(=O)(=O)N1Cc1cc(F)c([C@](C)(CO)C(N)=O)cc1F [Compound 11, (2R)-2-[2,5-difluoro-4-[[(3S,6R)-3-methyl-1,1-dioxo-6-phenyl-thiazinan-2-yl]methyl]phenyl]-3-hydroxy-2-methyl-propanamide] | 7.73 |
| C[C@H]1CC[C@H](c2ccccc2)S(=O)(=O)N1Cc1cc(F)c([C@H](CCC#N)C(N)=O)cc1F [Compound 16, (2S)-4-cyano-2-[2,5-difluoro-4-[[(3S,6R)-3-methyl-1,1-dioxo-6-phenyl-thiazinan-2-yl]methyl]phenyl]butanamide] | 7.25 |
| C[C@H]1CC[C@H](c2ccccc2)S(=O)(=O)N1Cc1cc(F)c([C@@](C)(CO)C(N)=O)cc1F [Compound 10, (2S)-2-[2,5-difluoro-4-[[(3S,6R)-3-methyl-1,1-dioxo-6-phenyl-thiazinan-2-yl]methyl]phenyl]-3-hydroxy-2-methyl-propanamide] | 7.45 |
| C[C@H]1CC[C@H](c2ccccc2)S(=O)(=O)N1Cc1cc(F)c([C@H](CC2COC2)C(N)=O)cc1F [Compound 4, (2S)-2-[2,5-difluoro-4-[[(3S,6R)-3-methyl-1,1-dioxo-6-phenyl-thiazinan-2-yl]methyl]phenyl]-3-(oxetan-3-yl)propanamide] | 7.50 |
| CNC(=C[N+](=O)[O-])NC(C)c1cc(F)c(CN2C(C)CCC(c3ccccc3)S2(=O)=O)cc1F [Compound 28, N1′-[1-[2,5-difluoro-4-[[(3S,6R)-3-methyl-1,1-dioxo-6-phenyl-thiazinan-2-yl]methyl]phenyl]ethyl]-N1-methyl-2-nitro-ethene-1,1-diamine] | 7.70 |

The remaining lines, values ahead:

| pIC50 | Structure (SMILES) |
| --- | --- |
| 7.85 | Cc1n[nH]cc1C(=O)NC(C)c1cc(F)c(CN2[C@@H](C)CC[C@H](c3ccccc3)S2(=O)=O)cc1F (stereo in doubt) [Compound 53, N-[1-[2,5-difluoro-4-[[(3S,6R)-3-methyl-1,1-dioxo-6-phenyl-thiazinan-2-yl]methyl]phenyl]ethyl]-3-methyl-1H-pyrazole-4-carboxamide] |
| 6.16 | CN/C(=C\C#N)NC(C)c1cc(F)c(CN2[C@@H](C)CC[C@H](c3ccccc3)S2(=O)=O)cc1F (stereo partly drawn) [Compound 45, 3-[1-[2,5-difluoro-4-[[(3S,6R)-3-methyl-1,1-dioxo-6-phenyl-thiazinan-2-yl]methyl]phenyl]ethylamino]-3-(methylamino)prop-2-enenitrile; formic acid] |
| 8.33 | C[C@H]1CC[C@H](c2ccccc2)S(=O)(=O)N1Cc1cc(F)c([C@]2(C(N)=O)C[C@](C)(O)C2)cc1F [Compound 48, 1-[2,5-difluoro-4-[[(3S,6R)-3-methyl-1,1-dioxo-6-phenyl-thiazinan-2-yl]methyl]phenyl]-3-hydroxy-3-methyl-cyclobutanecarboxamide] |
| 7.03 | CC(NC(=O)c1c[nH]cn1)c1cc(F)c(CN2[C@@H](C)CC[C@H](c3ccccc3)S2(=O)=O)cc1F (stereo in doubt) [Compound 59, N-[1-[2,5-difluoro-4-[[(3S,6R)-3-methyl-1,1-dioxo-6-phenyl-thiazinan-2-yl]methyl]phenyl]ethyl]-1H-imidazole-4-carboxamide] |
| 6.84 | CC(NC(=O)c1cnccn1)c1cc(F)c(CN2[C@@H](C)CC[C@H](c3ccccc3)S2(=O)=O)cc1F (stereo in doubt) [Compound 57, N-[1-[2,5-difluoro-4-[[(3S,6R)-3-methyl-1,1-dioxo-6-phenyl-thiazinan-2-yl]methyl]phenyl]ethyl]pyrazine-2-carboxamide] |
| 7.96 | CC(NC(=O)c1ccno1)c1cc(F)c(CN2[C@@H](C)CC[C@H](c3ccccc3)S2(=O)=O)cc1F (stereo in doubt) [Compound 55, N-[1-[2,5-difluoro-4-[[(3S,6R)-3-methyl-1,1-dioxo-6-phenyl-thiazinan-2-yl]methyl]phenyl]ethyl]isoxazole-5-carboxamide] |
| 7.12 | CC(NC(=O)c1cnco1)c1cc(F)c(CN2[C@@H](C)CC[C@H](c3ccccc3)S2(=O)=O)cc1F (stereo in doubt) [Compound 75, N-[1-[2,5-difluoro-4-[[(3S,6R)-3-methyl-1,1-dioxo-6-phenyl-thiazinan-2-yl]methyl]phenyl]ethyl]oxazole-5-carboxamide] |
| 6.64 | Cc1ncoc1C(=O)NC(C)c1cc(F)c(CN2[C@@H](C)CC[C@H](c3ccccc3)S2(=O)=O)cc1F (stereo in doubt) [Compound 64, N-[1-[2,5-difluoro-4-[[(3S,6R)-3-methyl-1,1-dioxo-6-phenyl-thiazinan-2-yl]methyl]phenyl]ethyl]-4-methyl-oxazole-5-carboxamide] |
| 8.19 | Cc1cc(C(=O)NC(C)c2cc(F)c(CN3[C@@H](C)CC[C@H](c4ccccc4)S3(=O)=O)cc2F)on1 (stereo in doubt) [Compound 67, N-[1-[2,5-difluoro-4-[[(3S,6R)-3-methyl-1,1-dioxo-6-phenyl-thiazinan-2-yl]methyl]phenyl]ethyl]-3-methyl-isoxazole-5-carboxamide] |
| 6.41 | CC(NC(=O)c1cn(C)cn1)c1cc(F)c(CN2[C@@H](C)CC[C@H](c3ccccc3)S2(=O)=O)cc1F (stereo in doubt) [Compound 62, N-[1-[2,5-difluoro-4-[[(3S,6R)-3-methyl-1,1-dioxo-6-phenyl-thiazinan-2-yl]methyl]phenyl]ethyl]-1-methyl-imidazole-4-carboxamide] |
| 7.48 | C[C@H]1CC[C@H](c2ccccc2)S(=O)(=O)N1Cc1cc(F)c(C2(NC(=O)C3CC3)COC2)cc1F (stereo in doubt) [Compound 46, N-[3-[2,5-difluoro-4-[[(3S,6R)-3-methyl-1,1-dioxo-6-phenyl-thiazinan-2-yl]methyl]phenyl]oxetan-3-yl]cyclopropanecarboxamide] |
